Experimental data: patent publication US20260209152A1, “Substituted Hydroxystilbene Compounds and Derivatives, Synthesis and Uses Thereof” (Kynan Duke IP, LLC, priority 2019, published 2026)
Like-named read-outs stand apart in the source and are kept apart here. One block for each molecule: values may come before it.

Assays:
Test in all cases: CellTiter Glo cell viability assay
[1] = test system: Neuroblastoma SK-N-DZ/CRL-2149; assay type: cell-based; details: Homo sapiens, 11 dilutions 3-0.00001 μM
Experimental: (§1) 1.7*10^3 cells/well were seeded in quadruplicates in 96-well plate after plating. Drugs were added at 5 μM and 2-fold dilutions over 18 concentrations (0.000038146-5 […] range) to generate a dose-response curve. Cell growth was assessed on day 1, 3 and 5 after drug treatments using the CellTiter Glo Luminescence Cell Viability Assay (Promega) according to manufacturer's protocol. Thermo Scientific Varioskan LUX Multimode Microplate instrument was used for plate reading. Data are expressed as mean luminescence (arbitrary units) ±S.D.
(§2) Cell Viability Assays were employed to determine the concentration of Compound 1 (KYN-001) and analogues where the response is reduced by half. For each treatment of cancer cells, 1, 2, 5, 10 and 20 μM solutions of compounds were applied. GraphPad Prism 7 software was used to fit dose response curves. Relative Luminescence Units were plotted against the log values of the doses used and the nonlinear regression model was used for data analysis.
(§3) IC50 (μM) values correspond to log(inhibitor) vs. response (four parameters) and dose-response graphs were generated using GraphPad Prism8.

[2] = test system: Muscle Ewing's Sarcoma A-673/CRL-1598; assay type: cell-based; details: Homo sapiens, A673, 11 dilutions 3-0.00001 μM
Experimental: as §1, §2, §3

[3] = test system: Neuroblastoma SK-N-FI/CRL-2142; assay type: cell-based; details: Homo sapiens, 11 dilutions 3-0.00001 μM
Experimental: as §1, §2, §3

[4] = test system: Liver cancer SNU-449/CRL-2234; assay type: cell-based; details: Homo sapiens, 11 dilutions 3-0.00001 μM
Experimental: as §1, §2, §3

[5] = test system: Osteosarcoma MG-63/CRL-1427; assay type: cell-based; details: Homo sapiens, 11 dilutions 3-0.00001 μM
Experimental: as §1, §2, §3

[6] = test system: Neuroblastoma CHP-212/CRL-2273; assay type: cell-based; details: Homo sapiens, 11 dilutions 3-0.00001 μM
Experimental: as §1, §2, §3

[7] = test system: Colon cancer HT-29/HTB-38; assay type: cell-based; details: Homo sapiens, 11 dilutions 3-0.00001 μM
Experimental: as §1, §2, §3

[8] = test system: Colon cancer SW620/CCL-227; assay type: cell-based; details: Homo sapiens, SW-620, 11 dilutions 3-0.00001 μM
Experimental: as §1, §2, §3

[9] = test system: Neuroblastoma BE(2)-C/CRL-2268; assay type: cell-based; details: Homo sapiens, 11 dilutions 3-0.00001 μM
Experimental: as §1, §2, §3

Pharynx FADU = assay type: cell-based, human; details: for IC50: Homo sapiens
Procedure, shortened: (§4)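 Cells were seeded at 1.7*10^3 cells/well in quadruplicate and treated with 18 two-fold dilutions from 5 μM (0.000038146–5 μM), or with 1, 2, 5, 10 and 20 μM. Viability was read by CellTiter Glo luminescence on days 1, 3 and 5, and IC50 came from nonlinear regression of RLU against log dose.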

Liver SNU-423 = assay type: cell-based, human; details: for IC50: Homo sapiens
Procedure, shortened: as §4

Lung NCI-H2126 = assay type: cell-based, human; details: for IC50: Homo sapiens
Procedure, shortened: as §4

Lung NCI-H1563 = assay type: cell-based, human; details: for IC50: Homo sapiens
Procedure, shortened: as §4

Kidney Caki-2 = assay type: cell-based, human; details: for IC50: Homo sapiens
Procedure, shortened: as §4

Kidney Caki-1 = assay type: cell-based, human; details: for IC50: Homo sapiens
Procedure, shortened: as §4

Tongue SCC-4 = assay type: cell-based, human; details: for IC50: Homo sapiens
Procedure, shortened: as §4

Liver SNU-398 = assay type: cell-based, human; details: for IC50: Homo sapiens
Procedure, shortened: as §4

Rhabomyosarcoma TE 159.T = assay type: cell-based, human; details: for IC50: Homo sapiens, 72 h, 3 Days of treatment, 18 2-fold dilutions 5-0.00003 μM, read-out: Average IC50
Procedure, shortened: as §4

Pharynx DETROIT = assay type: cell-based, human; details: for IC50: Homo sapiens
Procedure, shortened: as §4

Pancreatic BxPC3 = assay type: cell-based, human; details: for IC50: Homo sapiens
Procedure, shortened: as §4

Lung NCI-H1573 = assay type: cell-based, human; details: for IC50: Homo sapiens
Procedure, shortened: as §4

Tongue UPCI: SCC090 = assay type: cell-based, human; details: for IC50: Homo sapiens
Procedure, shortened: as §4

Bladder SCABER = assay type: cell-based, human; details: for IC50: Homo sapiens
Procedure, shortened: as §4

[10] = test system: Hypo-pharynx UPCI: SCC152; assay type: cell-based, human; details: for IC50: Homo sapiens
Procedure, shortened: as §4

[11] = FaDu, 72 h, 3 Days of treatment, 18 2-fold dilutions 5-0.00003 μM, read-out: Average IC50
[12] = Fadu/HTB-43, 11 dilutions 3-0.00001 μM, read-out: IC50
[13] = SNU-423, 72 h, 3 Days of treatment, 18 2-fold dilutions 5-0.00003 μM, read-out: Average IC50
[14] = SNU-423/CRL-2238, 11 dilutions 3-0.00001 μM, read-out: IC50
[15] = NCI-H2126, 72 h, 3 Days of treatment, 18 2-fold dilutions 5-0.00003 μM, read-out: Average IC50
[16] = NCI-H2126/CCL-256, 11 dilutions 3-0.00001 μM, read-out: IC50
[17] = NCI-H1563, 72 h, 3 Days of treatment, 18 2-fold dilutions 5-0.00003 μM, read-out: Average IC50
[18] = NCI-H1563/CRL-5875, 11 dilutions 3-0.00001 μM, read-out: IC50
[19] = CAKI-2, 72 h, 3 Days of treatment, 18 2-fold dilutions 5-0.00003 μM, read-out: Average IC50
[20] = Caki-2/HTB-47, 11 dilutions 3-0.00001 μM, read-out: IC50
[21] = CAKI-1, 72 h, 3 Days of treatment, 18 2-fold dilutions 5-0.00003 μM, read-out: Average IC50
[22] = Caki-1/HTB-46, 11 dilutions 3-0.00001 μM, read-out: IC50
[23] = SCC-4, 72 h, 3 Days of treatment, 18 2-fold dilutions 5-0.00003 μM, read-out: Average IC50
[24] = SCC-4/CRL-1624, 11 dilutions 3-0.00001 μM, read-out: IC50
[25] = SNU-398, 72 h, 3 Days of treatment, 18 2-fold dilutions 5-0.00003 μM, read-out: Average IC50
[26] = SNU-398/CRL-2233, 11 dilutions 3-0.00001 μM, read-out: IC50
[27] = 72 h, 3 Days of treatment, 18 2-fold dilutions 5-0.00003 μM, read-out: Average IC50
[28] = Detroit 562/CCL-138, 11 dilutions 3-0.00001 μM, read-out: IC50
[29] = BXPC-3, 72 h, 3 Days of treatment, 18 2-fold dilutions 5-0.00003 μM, read-out: Average IC50
[30] = BxPC-3/CRL-1687, 11 dilutions 3-0.00001 μM, read-out: IC50
[31] = NCI-H1573, 72 h, 3 Days of treatment, 18 2-fold dilutions 5-0.00003 μM, read-out: Average IC50
[32] = NCI-H1573/CRL-5877, 11 dilutions 3-0.00001 μM, read-out: IC50
[33] = UPCI: SCC090/CRL-3239, 11 dilutions 3-0.00001 μM, read-out: IC50
[34] = SCaBER, 72 h, 3 Days of treatment, 18 2-fold dilutions 5-0.00003 μM, read-out: Average IC50
[35] = SCaBER/HTB-3, 11 dilutions 3-0.00001 μM, read-out: IC50
[36] = UPCI: SCC152/CRL-3240, 11 dilutions 3-0.00001 μM, read-out: IC50
[37] = IC50 of 1 [KYN-001] vs 8 [KYN-119], 3 Days

IC50 [1]: 132 nM | IC50 [2]: 471 nM | IC50 [3]: 116 nM | IC50 [4]: 81.8 nM | IC50 [5]: 44.1 nM | IC50 [6]: 28.1 nM | IC50 [7]: 1560 nM | IC50 [8]: 121 nM | IC50 [9]: 67.1 nM | IC50 (Liver SNU-423; [13]): 33.8 nM | IC50 (Liver SNU-423; [14]): 203 nM | IC50 (Lung NCI-H2126; [15]): 75.4 nM | IC50 (Lung NCI-H2126; [16]): 106 nM | IC50 (Lung NCI-H1563; [17]): 449 nM | IC50 (Lung NCI-H1563; [18]): 184 nM | IC50 (Liver SNU-398; [25]): 42.9 nM | IC50 (Liver SNU-398; [26]): 208 nM | IC50 (Rhabomyosarcoma TE 159.T): 147 nM | IC50 (Pancreatic BxPC3; [29]): 1060 nM | IC50 (Pancreatic BxPC3; [30]): 944 nM | IC50 (Lung NCI-H1573; [31]): 217 nM | IC50 (Lung NCI-H1573; [32]): 273 nM
SMILES: COc1cc(/C=C/c2cc(O)cc(OC)c2CC=C(C)C)ccc1O [Compound 1, (E)-3-(4-hydroxy-3-methoxystyryl)-5-methoxy-4-(3-methylbut-2-en-1-yl)phenol]
IC50 (Pharynx FADU; [11]): 74.4 nM | IC50 (Pharynx FADU; [12]): 139 nM | IC50 (Kidney Caki-2; [19]): 1120 nM | IC50 (Kidney Caki-2; [20]): 426 nM | IC50 (Kidney Caki-1; [21]): 103 nM | IC50 (Kidney Caki-1; [22]): 120 nM | IC50 (Tongue SCC-4; [23]): 100 nM | IC50 (Tongue SCC-4; [24]): 39.5 nM | IC50 (Pharynx DETROIT; [27]): 1170 nM | IC50 (Pharynx DETROIT; [28]): 131 nM | IC50 (Tongue UPCI: SCC090; [27]): 90.1 nM | IC50 (Tongue UPCI: SCC090; [33]): 0.9 nM | IC50 (Bladder SCABER; [34]): 33.7 nM | IC50 (Bladder SCABER; [35]): 65 nM | IC50 [10, 27]: 46.3 nM | IC50 [10, 36]: 140 nM

IC50 [1]: 50.1 nM | IC50 [2]: 157 nM | IC50 [3]: 26.6 nM | IC50 [4]: 32.5 nM | IC50 [5]: 18.2 nM | IC50 [6]: 9.8 nM | IC50 [7]: 939 nM | IC50 [8]: 35.5 nM | IC50 [9]: 25.9 nM | IC50 (Liver SNU-423; [13]): 6.23 nM | IC50 (Liver SNU-423; [14]): 79.7 nM | Fold IC50 (Liver SNU-423; [37]): 5.4 | IC50 (Lung NCI-H2126; [15]): 1.73 nM | IC50 (Lung NCI-H2126; [16]): 33.1 nM | Fold IC50 (Lung NCI-H2126; [37]): 44 | IC50 (Lung NCI-H1563; [17]): 19.5 nM | IC50 (Lung NCI-H1563; [18]): 54.5 nM | Fold IC50 (Lung NCI-H1563; [37]): 23 | IC50 (Liver SNU-398; [25]): 8.15 nM | IC50 (Liver SNU-398; [26]): 74.6 nM | Fold IC50 (Liver SNU-398; [37]): 5.3 | IC50 (Rhabomyosarcoma TE 159.T): 19.6 nM | Fold IC50 (Rhabomyosarcoma TE 159.T; [37]): 7.5 | IC50 (Pancreatic BxPC3; [29]): 355 nM | IC50 (Pancreatic BxPC3; [30]): 387 nM | Fold IC50 (Pancreatic BxPC3; [37]): 3.0 | IC50 (Lung NCI-H1573; [31]): 20.5 nM | IC50 (Lung NCI-H1573; [32]): 33.5 nM | Fold IC50 (Lung NCI-H1573; [37]): 11
SMILES: CCOc1cc(O)cc(/C=C/c2ccc(O)c(OC)c2)c1CC=C(C)C [Compound 8, (E)-3-Ethoxy-5-(4-hydroxy-3-methoxystyryl)-4-(3-methylbut-2-en-1-yl)phenol]
IC50 (Pharynx FADU; [11]): 37.1 nM | IC50 (Pharynx FADU; [12]): 54.1 nM | Fold IC50 (Pharynx FADU; [37]): 2.0 | IC50 (Kidney Caki-2; [19]): 281 nM | IC50 (Kidney Caki-2; [20]): 524 nM | Fold IC50 (Kidney Caki-2; [37]): 4.0 | IC50 (Kidney Caki-1; [21]): 8.9 nM | IC50 (Kidney Caki-1; [22]): 27.9 nM | Fold IC50 (Kidney Caki-1; [37]): 12 | IC50 (Tongue SCC-4; [23]): 23.9 nM | IC50 (Tongue SCC-4; [24]): 23.2 nM | Fold IC50 (Tongue SCC-4; [37]): 4.2 | IC50 (Pharynx DETROIT; [27]): 438 nM | IC50 (Pharynx DETROIT; [28]): 76.6 nM | Fold IC50 (Pharynx DETROIT; [37]): 2.7 | IC50 (Tongue UPCI: SCC090; [27]): 26 nM | IC50 (Tongue UPCI: SCC090; [33]): 0.5 nM | Fold IC50 (Tongue UPCI: SCC090; [37]): 3.5 | IC50 (Bladder SCABER; [34]): 10.1 nM | IC50 (Bladder SCABER; [35]): 27.3 nM | Fold IC50 (Bladder SCABER; [37]): 3.3 | IC50 [10, 27]: 23 nM | IC50 [10, 36]: 54.9 nM | Fold IC50 [10, 37]: 2.0
